Several values for one entry are separate records, joined by “and”; a condition that tells them apart may be missing. Identical values can stand only once.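 48-hour exposure; five concentrations; linearly interpolated endpoints. Abbreviation: GI50, concentration required for 50% inhibition of growth. At the TGI there is no net growth.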
What was measured:
Test in all cases: inhibition of tumour cell growth, NCI panel, 48 h
OVCAR-4 ovarian = test system: OVCAR-4 ovarian
NCI-H226 lung = test system: NCI-H226 lung
ACHN renal = test system: ACHN renal
SK-MEL-28 melanoma = test system: SK-MEL-28 melanoma
MDA-MB-435 = test system: MDA-MB-435
UO-31 renal = test system: UO-31 renal
OVCAR-8 ovarian = test system: OVCAR-8 ovarian
MCF7 breast = test system: MCF7 breast
MALME-3M melanoma = test system: MALME-3M melanoma
A498 renal = test system: A498 renal

Structure (SMILES)	GI50 (OVCAR-4 ovarian)	TGI (OVCAR-4 ovarian)	GI50 (NCI-H226 lung)	TGI (NCI-H226 lung)	GI50 (ACHN renal)	TGI (ACHN renal)	GI50 (SK-MEL-28 melanoma)	TGI (SK-MEL-28 melanoma)	GI50 (MDA-MB-435)	TGI (MDA-MB-435)	GI50 (UO-31 renal)	TGI (UO-31 renal)	GI50 (OVCAR-8 ovarian)	TGI (OVCAR-8 ovarian)	GI50 (MCF7 breast)	TGI (MCF7 breast)	GI50 (MALME-3M melanoma)	TGI (MALME-3M melanoma)	GI50 (A498 renal)	TGI (A498 renal)
O=C1Nc2ccccc2/C1=C/C(=O)c1coc2c1C(=O)c1ccccc1C2=O	> 100 µM	> 100 µM	> 100 µM	> 100 µM	> 100 µM	> 100 µM	> 100 µM	> 100 µM	> 100 µM	> 100 µM	70.4 µM	> 100 µM	> 100 µM	> 100 µM	74.7 µM	> 100 µM	> 100 µM	> 100 µM	45.7 µM	> 100 µM
COc1ccc(C(=O)c2cc(OC)c(OC)c(OC)c2)cc1OC(=O)CCl	0.115 µM	> 100 µM	11.3 µM	> 100 µM	< 0.0267 µM	98.7 µM	0.358 µM	> 100 µM	< 0.01 µM	–	0.373 µM	> 100 µM	0.052 µM	> 100 µM	0.0249 µM	> 100 µM	–	> 100 µM	2.07 µM	7.01 µM
Nc1c(C(=O)c2cccc(-c3ccncc3)c2)cnn1-c1ccc(F)cc1F	11.4 µM	> 25 µM	4.36 µM	> 25 µM	12 µM	> 25 µM	16.7 µM	> 25 µM	0.684 µM	3.56 µM	8.96 µM	> 25 µM	18.3 µM	> 25 µM	3.08 µM	> 25 µM	3.98 µM	> 16.2 µM	4.65 µM	> 25 µM
COc1cc(OC(=O)c2ccccc2)cc2c1C(=O)C=CC2=O	–	12.3 µM	–	49.4 µM	–	26.4 µM	–	34.5 µM	–	12 µM	–	22.8 µM	–	63.3 µM	–	52 µM	–	27 µM	–	37.8 µM
COC(=O)c1nc(-c2ccccc2)oc1S(=O)(=O)Cc1ccccc1	1.82 µM	3.4 µM	13.9 µM	31.4 µM	1.77 µM	3.15 µM	7.15 µM	20.4 µM	11.1 µM	23.6 µM	1.48 µM	2.84 µM	12.1 µM	28.2 µM	2.72 µM	11.1 µM	1.73 µM	3.44 µM	15.9 µM	29.7 µM
C#Cc1c(F)ccc2cc(O)cc(-c3ncc4c(N5CC6CCC(C5)N6)nc(OC[C@@]56CCCN5C[C@H](F)C6)nc4c3F)c12	16.8 µM	37.1 µM	15.1 µM	35.1 µM	> 39.4 µM	> 53.8 µM	15.6 µM	29.1 µM	13.6 µM	27.3 µM	> 34.8 µM	> 50.2 µM	17.3 µM	36.4 µM	8.48 µM	24 µM	15.5 µM	29.3 µM	15.7 µM	34.2 µM
COc1cc(C[C@H]2c3cc(OC)c(OC)cc3CCN2C)c(Oc2cc3c(cc2OC)-c2c(OC)c(OC)cc4c2[C@H](C3)N(C)CC4)cc1OC	14.6 µM	23.9 µM and 28.6 µM	19.7 µM	29.4 µM and 34.6 µM	14.5 µM	30 µM and 27.5 µM	2.94 µM	9.03 µM and 8.73 µM	–	12.5 µM	9.73 µM	16.8 µM and 22.6 µM	17 µM	18.5 µM and 35 µM	–	27.8 µM	5.39 µM	17 µM and 10.2 µM	–	25.1 µM and 21.2 µM
COc1ccc(-c2nc(-c3nc4ccc(OC)cc4[nH]3)c3ccccn23)cc1	4.53 µM	> 100 µM	6.57 µM	> 100 µM	3.57 µM	36.6 µM	18.5 µM	> 100 µM	3.14 µM	> 100 µM	2.47 µM	7.93 µM	2.35 µM	7.6 µM	3.4 µM	> 100 µM	13.3 µM	70.5 µM	4.28 µM	> 100 µM
CCN(CC)CCCC(C)Nc1ccnc2cc(Oc3ccccc3)ccc12 (configuration not stated)	9.78 µM and 16 µM	41.7 µM and 59.2 µM	8.4 µM and 14.9 µM	31.1 µM and > 100 µM	5.61 µM and 6.72 µM	26.2 µM and 29 µM	1.73 µM and 1.99 µM	3.22 µM and 3.65 µM	2.38 µM	6.21 µM and 7.27 µM	1.3 µM and 11.3 µM	3.09 µM and 27.7 µM	3.62 µM and 9.15 µM	14.6 µM and 38.5 µM	8.46 µM and 6.01 µM	26.5 µM and 19.4 µM	6.03 µM and 2.29 µM	12.3 µM and 4.47 µM	–	7.85 µM and 28.5 µM
COc1ccc(-c2cn(-c3cc(OC)c(OC)c(OC)c3)c(SCc3ccccc3)n2)cc1OC	> 100 µM	> 100 µM	> 100 µM	> 100 µM	> 100 µM	> 100 µM	> 100 µM	> 100 µM	> 100 µM	> 100 µM	45.5 µM	> 100 µM	> 100 µM	> 100 µM	> 100 µM	> 100 µM	> 100 µM	> 100 µM	> 100 µM	> 100 µM
COc1cc(NC(C)CCCNC2CN3CCC2CC3)c2ncccc2c1 (configuration not stated)	1.84 µM	6.51 µM	13.6 µM	27.7 µM	14.7 µM	29.3 µM	11.3 µM	23.7 µM	8.71 µM	22 µM	13.7 µM	32.6 µM	13.7 µM	30.1 µM	1.64 µM	3.58 µM	10 µM	24.3 µM	2.05 µM	16.8 µM
C(#Cc1ccccc1C#Cc1cccs1)c1cccs1	83.8 µM	> 100 µM	39.2 µM	> 100 µM	78 µM	> 100 µM	> 100 µM	> 100 µM	37.2 µM	> 100 µM	35.8 µM	> 100 µM	> 100 µM	> 100 µM	43.3 µM	> 100 µM	56.9 µM	> 100 µM	22 µM	81.4 µM
COc1cc2ccc(/C=C\[N+](=O)[O-])cc2cc1OC	–	7.56 µM	–	76.5 µM	–	3.2 µM	–	7.51 µM	–	7.63 µM	–	3.36 µM	–	9.72 µM	–	7.06 µM	–	–	–	29.1 µM
Cc1nn2c(/C=C3\C(=O)Nc4ccc(Cl)cc43)c(C)nc2s1	83 µM	> 100 µM	> 100 µM	> 100 µM	72.9 µM	> 100 µM	27.5 µM	> 100 µM	3.4 µM	26.7 µM	34.6 µM	> 100 µM	84.3 µM	> 100 µM	15.6 µM	> 100 µM	> 100 µM	> 100 µM	46 µM	> 100 µM
C=C1C(=O)O[C@H]2[C@H]1CC/C(COC(=O)NCc1ccc(Cn3c(=O)sn(CCCl)c3=O)cc1)=C\CC[C@@]1(C)O[C@@H]21	1.92 µM	4.01 µM	17.2 µM	37.3 µM	1.54 µM	2.87 µM	1.74 µM	3.38 µM	1.74 µM	3.47 µM	1.65 µM	3.25 µM	2.04 µM	4.81 µM	1.91 µM	4.4 µM	1.72 µM	3.46 µM	11.5 µM	23.8 µM
COc1cc2c(cc1C)NC(=O)/C2=C/c1ccccn1	8.02 µM	> 100 µM	1.54 µM	4.86 µM	2.48 µM	35.6 µM	10.5 µM	> 100 µM	3.77 µM	> 100 µM	12.2 µM	> 100 µM	3.14 µM	> 100 µM	3.27 µM	> 100 µM	–	–	3.61 µM	8.25 µM
CC(C)[C@H](N)C(=O)N1CCC[C@H]1B(O)O	> 100 µM	> 100 µM	> 100 µM	> 100 µM	> 100 µM	> 100 µM	> 100 µM	> 100 µM	> 100 µM	> 100 µM	> 100 µM	> 100 µM	> 100 µM	> 100 µM	> 100 µM	> 100 µM	> 100 µM	> 100 µM	> 100 µM	> 100 µM
COc1cc(CSc2nc3ccc(C)cc3c(=O)n2-c2ccccc2)cc(OC)c1OC	4.92 µM	> 100 µM	3.4 µM	> 100 µM	4.78 µM	> 100 µM	2.8 µM	> 100 µM	0.269 µM	0.896 µM	3.67 µM	> 100 µM	4.51 µM	> 100 µM	0.548 µM	> 100 µM	3.73 µM	> 100 µM	1.92 µM	9.15 µM
COc1ccc2c(c1)c(=O)oc1cc(OC/C(C)=N\O)ccc12	> 100 µM	> 100 µM	> 100 µM	> 100 µM	29.9 µM	> 100 µM	> 100 µM	> 100 µM	> 100 µM	> 100 µM	33.3 µM	> 100 µM	> 100 µM	> 100 µM	> 100 µM	> 100 µM	> 100 µM	> 100 µM	> 100 µM	> 100 µM
C=C1CCC2C3(C)COC(c4ccc(N(C)C)cc4)OC3CCC2(C)C1C/C=C1/C(=O)OCC1O (configuration not stated)	2.5 µM	8.98 µM	6.09 µM	18.2 µM	9.16 µM	21.4 µM	2.34 µM	5.4 µM	2.88 µM	10.5 µM	5.63 µM	18.9 µM	3.78 µM	18.9 µM	2.32 µM	13 µM	7.83 µM	22.2 µM	6.25 µM	17.1 µM
CC(C)(C)n1cc(-c2ccnc(NCCCNS(=O)(=O)c3ccc(C(F)(F)F)cc3)c2)c(-c2cccc(O)c2)n1	2.29 µM	5.25 µM	2.35 µM	5.71 µM	1.88 µM	3.54 µM	1.75 µM	3.25 µM	1.81 µM	3.35 µM	1.58 µM	3.06 µM	2.46 µM	6.44 µM	1.78 µM	3.63 µM	1.72 µM	3.38 µM	1.54 µM	4.2 µM
O=[N+]([O-])O.[Cu+2].[NH-]CC[NH-].[NH-]CC[NH-]	> 10 µM	> 10 µM	> 10 µM	> 10 µM	> 10 µM	> 10 µM	> 10 µM	> 10 µM	> 10 µM	> 10 µM	> 10 µM	> 10 µM	> 10 µM	> 10 µM	> 10 µM	> 10 µM	> 10 µM	> 10 µM	> 10 µM	> 10 µM
c1ccc2[nH]c(-c3ccc(-c4nccc5c4[nH]c4ccccc45)cc3)nc2c1	2.27 µM	7.75 µM	2.27 µM	5.56 µM	2.05 µM	4.17 µM	1.96 µM	3.75 µM	1.92 µM	4.27 µM	1.69 µM	3.27 µM	3.3 µM	13.5 µM	3.56 µM	17.2 µM	1.85 µM	3.61 µM	11.4 µM	25.5 µM
CCC(C)(CC(C)(C)C(=O)NCC(=O)NC(Cc1ccccc1)C(=O)NC(Cc1ccccc1)C(=O)NCC(=O)NC1CC(OC2CC(O)(C(=O)CO)Cc3c(O)c4c(c(O)c32)C(=O)c2c(OC)cccc2C4=O)OC(C)C1O)C(=O)NCC(C)O (configuration not stated)	> 150 µg/mL	> 150 µg/mL	41.4 µg/mL	> 150 µg/mL	73.9 µg/mL	> 150 µg/mL	> 150 µg/mL	> 150 µg/mL	> 150 µg/mL	> 150 µg/mL	> 150 µg/mL	> 150 µg/mL	138 µg/mL	> 150 µg/mL	22 µg/mL	> 150 µg/mL	–	–	> 150 µg/mL	> 150 µg/mL
O=C(O)CNC(=O)c1ccc(-c2ccccc2)cc1	–	–	–	> 100 µM	–	> 100 µM	–	> 100 µM	–	> 100 µM	–	> 100 µM	–	> 100 µM	–	> 100 µM	–	> 100 µM	–	> 100 µM
COc1cc([C@@H]2OC[C@@H]3C(c4cc(OC)c5c(c4)OCO5)OC[C@@H]32)cc(OC)c1OC (some centres not stated)	–	> 100 µM	–	> 100 µM	–	> 100 µM	–	> 100 µM	–	> 100 µM	–	> 100 µM	–	> 100 µM	–	> 100 µM	–	–	–	> 100 µM

From PubChem BioAssay (NCI)
